Literature values, collected in patent publication US11833118B2 (priority 2016, dated 2023).

Key:
[1] = not given; remark: listed apart in the source

| SMILES | crossing of the blood-brain barrier relative to Δ9THC (in vivo) | psychoactivity relative to Δ9THC (man) | Vapor Pressure at 25° C. [1] | Vapor Pressure at 53.8° C. [1] |
| --- | --- | --- | --- | --- |
| CCCCCc1cc(O)c2c(c1)OC(C)(C)[C@@H]1CCC(CO)=C[C@@H]21 [11-hydroxy-Δ9THC] | more rapidly crosses the blood-brain barrier | more psychoactive than Δ9THC |  |  |
| O [Water] |  |  | 23.8 mm Hg | 111.4 mm Hg |
| C=C(C)[C@H]1CC=C(C)CC1 [d-Limonene] |  |  | 2.0 mm Hg | 10 mm Hg |
